From patent US12427160B2, “Use of cannabinoids in the treatment of epilepsy” (Jazz Pharmaceuticals Research UK Limited, priority 2014, dated 2025)

What was measured:
Lennox-Gastaut syndrome = conditions: CBD in an oily solution, a child with Lennox-Gastaut syndrome; cited from earlier work
[1] = system: children and young adults with severe, childhood onset treatment-resistant epilepsy (TRE); experiment: Expanded access compassionate use program: 50% responders after 12 weeks of CBD added to baseline AED; type: in vivo, human; conditions: 12 weeks of treatment
seizures [2] = conditions: 200 mg/day of pure CBD, open label, twelve institutionalized adult patients; cited from earlier work
seizures [3] = conditions: 200 mg/day of pure CBD, four adult patients; cited from earlier work
[4] = Solubility of the drug substance in water; type: physicochemical
Source text: Sesame oil was selected as an excipient to solubilize the drug substance.

seizures in mice = conditions: after pro-convulsant drugs or an electric current; cited from earlier work
generalized epilepsy = conditions: eight adult patients with generalized epilepsy; cited from earlier work
[5] = in vivo; cited from earlier work

## C=C(C)[C@@H]1CCC(C)=C[C@H]1c1c(O)cc(CCCCC)cc1O [CBD, Cannabidiol]
Lennox-Gastaut syndrome
  seizure frequency: improvement in seizure frequency
[1]; absence seizures (n = 28)
  <50% reduction in seizures, proportion of patients, absence seizures: 36%
  >50% reduction in seizures, proportion of patients, absence seizures: 64%
[1]; clonic seizures (n = 8)
  <50% reduction in seizures, proportion of patients, clonic seizures: 50%
  >50% reduction in seizures, proportion of patients, clonic seizures: 50%
[1]; myoclonic seizures (n = 30)
  <50% reduction in seizures, proportion of patients, myoclonic seizures: 57%
  >50% reduction in seizures, proportion of patients, myoclonic seizures: 43%
[1]; tonic seizures (n = 45)
  <50% reduction in seizures, proportion of patients, tonic seizures: 51%
  >50% reduction in seizures, proportion of patients, tonic seizures: 49%
[1]; tonic-clonic seizures (n = 65)
  <50% reduction in seizures, proportion of patients, tonic-clonic seizures: 37%
  >50% reduction in seizures, proportion of patients, tonic-clonic seizures: 43%
[1]; total seizures (n = 137)
  <50% reduction in seizures, proportion of patients, total seizures: 54% (n = 74)
Seizures [2]
  control of seizures: ineffective in controlling seizures
Seizures [3]
  seizure freedom / seizure frequency: two of the four patients became seizure free
[4]
  solubility in water: insoluble in water
Seizures in mice
  prevention of seizures: able to prevent seizures in mice
Generalized epilepsy
  reduction of seizures: marked reduction of seizures in 4 of the patients

## CCCCCc1cc(O)c2c(c1)OC(C)(C)[C@@H]1CCC(C)=C[C@@H]21 [THC, Tetrahydrocannabinol]
[5]
  pro-convulsant effect: pro-convulsant
